Reference: article PMC3927586, “Protein kinase C-delta inactivation inhibits the proliferation and survival of cancer stem cells in culture and in vivo” (BMC Cancer, 2014)
Several values for one entry are separate records, joined by “and”; a condition that tells them apart may be missing. Equal values may be shown once. Read-outs that look alike come from different tables or passages of the source.

How the values were obtained:
Hs578T cells = assay: Tumor spheroid formation, Hs578T; type: cell-based, human; conditions: for effect on formation of spheroids, Hs578T: added to culture medium, 96 hr, p≤0.001
Description: (§1) Tumor self-renewing and anchorage-independent spheroids were obtained by culturing breast cancer cells MCF7, Hs587T and MDA231; melanoma cells SBcl2 and FM6; human breast cancer stem cells and pancreatic cancer stem cells in stem cell-selective conditions according to the manufacturer’s instructions (StemCell Technologies, Tukwila, WA). Briefly, cancer and cancer stem cells were propagated in 6-well ultra-low adherent plates (Corning) in Complete MammoCult Medium (Human) by adding 50 mL of MammoCult Proliferation Supplements to 450 mL of MammoCult Basal Medium (StemCell Technologies). The following were added to obtain Complete MammoCult Medium: 4 ug/mL Heparin (StemCell Technologies), 0.48 μg/mL hydrocortisone (StemCell Technologies), 200 U penicillin/ml; and 200 μg streptomycin/ml (Invitrogen).
Figure 4 Effects of PKCδ inhibitors on human tumor cell spheroid formation. (A) Hs578T and MCF7 were plated under adherent or non-adherent conditions. Tumor spheroids and adherent cells were collected at 96 hr, stained for CD24 and CD44, and analyzed by flow cytometry. (B) Hs578T, MCF7, breast cancer stem cells (BCSC) and pancreatic cancer stem cells (PCSC) were plated in tumor spheroid media, in the presence of rottlerin, BJE6-106, or DMSO (Control). Tumor spheroids were enumerated at 96 hr, and normalized to the number of spheroids in the control cultures (assigned an arbitrary value of 100%). p values for comparison between vehicle and rottlerin or BJE6-106 effects were significant (p≤0.001). Photographs are of representative areas of the culture plates. (C) MCF7 cells were exposed BJE6-106 or to rottlerin at the indicated concentrations. The corresponding equivalent volume of solvent (DMSO) was used as a vehicle control (Vehicle). After 24, 48 and 72 hr of exposure, cell mass was evaluated by MTT assay. Control values were normalized to 100%. p values for comparison between vehicle and rottlerin effects on cell number at 24 hr reached significance at 5 μM, and for BJE6-106 at 0.5 μM (p ≤ 0.02), and were significant for all concentrations tested at 48 and 72 hr time points. (D) Hs578T cells were exposed to vehicle or BJE6-106 (1 μM) for 6, 12, 24, 48 or 96 hr. Viable cells were enumerated and re-plated in media without BJE6-206, and spheroid numbers were quantitated 96 hr later. p values for comparison between vehicle and BJE6-106 effects on spheroid number were significant after 6 hr of exposure (p≤0.02), and remained significant at all time points thereafter. Error bars represent SEM.

[1] = Drug-like properties: bioavailability; conditions: in vivo delivery
MCF 10C cells = assay: Tumor spheroid formation, MCF 10C; type: cell-based, human; conditions: spheroids enumerated at 10 days
Description: as §1
Figure 5 Effects of PKCδ inhibitors on growth and spheroid formation in non-transformed and transformed human breast epithelial cells. […] After 24, 48 and 72 hr of exposure, cell mass was evaluated by MTT assay. […] (C) MCF 10A and MCF 10C cells were plated at 10,000 cells per well in tumor spheroid media, and spheroid formation was assessed at days 10 and 21. […]

recombinant PKCδ = target: T1, recombinant PKCδ (Homo sapiens, UniProt Q05655); assay: PKC kinase activity assay (Z-lyte), PKCδ; type: biochemical; conditions: for PKCδ/PKCα Selectivity ratio: PKCδ versus PKCα in vitro
T1 construct: purchased Invitrogen
Description: Assays were carried out using recombinant PKCδ or PKCα, (Invitrogen) and the Z-lyte Kinase Assays (Invitrogen) with a “PKC-kinase-specific” peptide substrate. FRET interactions produce a change in fluorescence (ex455/ex520) upon phosphorylation. The kit was used according to the manufacturer’s instructions.

[2] = test system: breast cancer stem cells (BCSC); assay: Tumor spheroid formation, BCSC; type: cell-based, human; conditions: added to culture medium, 96 hr, p≤0.001
Description: as §1
Figure 4 Effects of PKCδ inhibitors on human tumor cell spheroid formation. […] Tumor spheroids and adherent cells were collected at 96 hr, stained for CD24 and CD44, and analyzed by flow cytometry. […] After 24, 48 and 72 hr of exposure, cell mass was evaluated by MTT assay. […] Viable cells were enumerated and re-plated in media without BJE6-206, and spheroid numbers were quantitated 96 hr later. p values for comparison between vehicle and BJE6-106 effects on spheroid number were significant after 6 hr of exposure (p≤0.02), and remained significant at all time points thereafter. […]

[3] = in vitro kinase assay, read-out: PKCδ IC50

T1 sequence (Q05655 whole entry): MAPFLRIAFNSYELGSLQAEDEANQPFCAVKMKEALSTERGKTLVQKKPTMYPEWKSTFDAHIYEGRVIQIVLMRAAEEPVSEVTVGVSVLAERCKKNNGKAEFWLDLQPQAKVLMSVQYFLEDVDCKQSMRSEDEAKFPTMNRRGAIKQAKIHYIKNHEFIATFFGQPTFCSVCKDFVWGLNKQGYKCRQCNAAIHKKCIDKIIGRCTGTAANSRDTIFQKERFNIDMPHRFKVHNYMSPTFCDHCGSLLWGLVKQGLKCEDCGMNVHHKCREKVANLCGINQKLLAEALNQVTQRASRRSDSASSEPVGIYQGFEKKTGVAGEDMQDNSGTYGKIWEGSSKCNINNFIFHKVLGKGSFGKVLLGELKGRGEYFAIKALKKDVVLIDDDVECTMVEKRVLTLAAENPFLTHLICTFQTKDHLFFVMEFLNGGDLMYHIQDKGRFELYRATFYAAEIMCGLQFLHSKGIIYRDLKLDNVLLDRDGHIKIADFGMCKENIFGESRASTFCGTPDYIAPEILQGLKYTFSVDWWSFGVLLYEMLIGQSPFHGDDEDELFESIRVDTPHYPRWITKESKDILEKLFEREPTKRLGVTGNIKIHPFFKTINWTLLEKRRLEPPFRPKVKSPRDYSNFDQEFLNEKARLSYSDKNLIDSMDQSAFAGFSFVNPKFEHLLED

| Structure (SMILES) | exposure time for near maximum inhibition of spheroid formation (washout) (Hs578T cells; BJE6-106 at 1 μM, Hs578T) | exposure time that significantly repressed spheroid formation (washout) (Hs578T cells; BJE6-106 at 1 μM, Hs578T, spheroids counted 96 hr after re-plating) | effect on formation of spheroids, Hs578T (Hs578T cells) | bioavailability [1] | effect on growth of MCF 10C spheroids (MCF 10C cells; BJE6-106 at 1 μM) | PKCδ/PKCα Selectivity ratio (recombinant PKCδ) | PKCδ/PKCα Selectivity ratio (recombinant PKCδ; listed as 3) | IC50 (recombinant PKCδ; [3]) | effect on formation of spheroids, BCSC [2] | effect on growth of MCF 10C spheroids (MCF 10C cells; rottlerin at 10 μM) | IC50 (recombinant PKCδ; PKCδ IC50, in vitro kinase assay) |
| --- | --- | --- | --- | --- | --- | --- | --- | --- | --- | --- | --- |
| CC1(C)C=Cc2cc(CCn3c4ccccc4c4ccccc43)cc(C=O)c2O1 [BJE6-106, 6-(2-(9H-carbazol-9-yl)ethyl)-2,2-dimethyl-2H-chromene-8-carbaldehyde] | ≤ 24 h | 6 h | very efficiently inhibited | poorly bioavailable | efficiently inhibited | approximately 1000 fold | 1000-fold | ~50 nM and 50 nM | very efficiently inhibited |  |  |
| CC(=O)c1c(O)c(C)c(O)c(Cc2c(O)c3c(c(C(=O)/C=C/c4ccccc4)c2O)OC(C)(C)C=C3)c1O [rottlerin, Rottlerin, reference compound] |  |  | very efficiently inhibited | readily bioavailable |  |  |  | 3000 nM | very efficiently inhibited | efficiently inhibited | ~5000 nM |
